Consider 18 molecules from PubChem BioAssay (NCI).

Each structure is given as a SMILES string.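 All cell lines were grown in 96-well plates and treated with compound for 48 hours. TGI: concentration producing complete growth inhibition.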

Experiment in all cases: NCI tumour cell line growth inhibition, 48 h
Experiment [1] has as its system M19-MEL melanoma.
For experiment [2], the system named is SNB-78 CNS.
Experiment [3] relates to HOP-18 NSCLC.
Experiment [4] has as its system LXFL 529 NSCLC.
For experiment [5], the system named is DMS 273 small cell lung.
Experiment [6] has as its system RXF-631 renal.
Experiment [7] concerns DMS 114 small cell lung.
For experiment [8], the system named is XF 498 CNS.
In experiment [9] the test system is MDA-N.
Experiment [10] concerns P388/ADR leukemia.
Experiment [11] deals with SN12K1 renal.

`COC(=O)C1=C(\O)C[C@@]2(C)CC[C@@H](C(=O)OC)C2C/C=C\1C(=O)OC` (some centres undefined): the TGI in experiment [1], in experiment [2], in experiment [3], in [4], in [5] and in experiment [6] was over 100 µM throughout. The TGI in experiment [7] is over 100 µM.
As to `O=C(NC1C(=O)NNC1c1ccccc1Cl)c1ccccc1` (centres undefined), the TGI in experiment [1], in [8], in experiment [3], in [4], in [5] and in [7] was over 100 µM each time.
`COc1cc(/C=C/c2ccccn2)cc(OC)c1OC` gave a TGI in experiment [9] of over 10 µM.
In experiment [9], `COc1cccc(/C=C\c2ccnc3ccccc23)c1` gave a TGI of over 10 µM.
In the case of `CCCCC(C(=O)CCC(=O)Nc1ccc(Cl)cc1)C(=O)C(C)C` (centres undefined), the TGI in experiment [1], in experiment [8], in experiment [2], in experiment [4], in experiment [5] and in experiment [6] was over 100 µM in each case. Moreover, the TGI in experiment [7] was over 100 µM.
On to `Nc1ccc(C(=O)Nc2ccccc2N)cc1`, for which the TGI in experiment [1], in experiment [8], in experiment [2], in experiment [3], in [4] and in experiment [9] was over 100 µM throughout. Further, the TGI in [5], in experiment [6] and in experiment [7] was over 100 µM in each case.
Turning to `COc1c(C)c(O)c2c(c1C)OC(c1ccccc1)CC2=O` (centres undefined), the TGI in experiment [1], in experiment [2], in experiment [3], in experiment [4], in experiment [5] and in [7] was over 100 µM throughout.
Consider `Nc1nc2ncn(CC(O)COC(=O)c3ccccc3)c2c(=O)[nH]1` (centres undefined), for which the TGI in experiment [1], in experiment [8], in experiment [2], in experiment [3], in experiment [4] and in [5] was over 100 µM throughout. Further, the TGI in [6] and in experiment [7] was over 100 µM each time.
As to `CC1CC(c2ccc(Cl)c(Cl)c2)=Nc2ccccc2S1` (centres undefined), the TGI in experiment [1], in [8], in experiment [2], in experiment [3], in experiment [4] and in experiment [5] was over 100 µM each time. In [7], this molecule registered a TGI of over 100 µM.
With `O=C(/C=C/c1ccccc1)OCC1=C[C@@H](O)[C@@H]2C=CO[C@@H](OC3OC(CO)C(O)C(O)C3O)[C@H]12` (some centres undefined), the TGI in experiment [9] is over 100 µM.
Still for that read-out and setting: under `c1cc2c(c(NC3=NCCN3)c1)CCCC2` stands over 100 µM.
Same read-out and setting: the value for `O=c1c2cc(O)c(O)cc2oc2cc(O)c(C3OC(CO)C(O)C(O)C3O)c(O)c12` (centres undefined) was over 100 µM.
Take `COC(=O)/C(=N/NC(C)(C)C)C(C(=O)OC)C(=O)C(=O)Nc1nc2ccc([N+](=O)[O-])cc2s1` (centres undefined): the TGI in [1], in [8], in experiment [2], in experiment [4] and in experiment [7] was over 100 µM in each case.
As for `CN1CCc2cc3c4cc2C1Cc1ccc(cc1)Oc1cc(ccc1O)CC1c2c(cc(O)c(c2O4)O3)CCN1C` (centres undefined), the TGI in experiment [1] is 3.35 µM; in experiment [2] it was 21.3 µM; in experiment [3] it was 18.5 µM; in experiment [4], 6.26 µM; in [5], 3.84 µM; in experiment [6], 7.92 µM. This molecule yielded a TGI in [7] of 4.58 µM.
As to `O=C1C(Br)=CC2(C=C1Br)CCNc1c(O)c3c4c(c12)=NCCC=4C=N3`, the TGI in experiment [1] stood at 0.0656 µM; in experiment [10], 0.0155 µM; in [8], 0.399 µM; in experiment [2], 0.656 µM; in [3], 3.4 µM; in [11], 0.426 µM. In addition, the TGI in experiment [9] was 0.245 µM; in experiment [5] it was 0.427 µM; in experiment [7], 0.101 µM.
Take `NCC1(N2CCOCC2)C2CCCC21CNc1ccccc1` (centres undefined): the TGI in experiment [1], in experiment [8], in experiment [2], in experiment [3], in experiment [4] and in experiment [5] was over 100 µM each time. Further, the TGI in experiment [6] and in experiment [7] was over 100 µM each time.
Take `N#CC1C(=O)NC(=O)C1=O` (centres undefined): the TGI in [1], in [8], in [2], in experiment [3], in experiment [4] and in [5] was over 100 µM in each case. The TGI in experiment [6] and in [7] was over 100 µM each time.
For the molecule `O=C1c2ccccc2C(=O)c2c1ccc1c2N=C(c2ccc(Br)cc2)CC(c2cccc3ccccc23)N1` (centres undefined), the TGI in [8], in experiment [2], in experiment [3], in [4], in [5] and in experiment [6] was over 100 µM each time. In [7], this molecule came in with a TGI of over 100 µM.
